US20250288587A1, “Methods of Treating Fibrosis” (Athira Pharma, Inc., priority 2022, published 2025)

Experiments:
CFA-stimulated rats [1] = test: CFA inflammatory pain model, cytokine expression in paw skin; format: in vivo; design: key to IFN-γ expression in paw skin, change compared to CFA alone / IL-4 expression in paw skin, change compared to CFA alone / TNF-α expression in paw skin, change compared to CFA alone: NS = no statistically significant change in expression compared to CFA alone; + = statistically significant change in expression compared to CFA alone, p < 0.05; conditions: day 8
Method: (§1) Response to peripheral inflammatory stimulus can be modeled by administering complete Freund's adjuvant (CFA), a suspension of desiccated mycobacterium in paraffin oil and mannide monooleate, by subcutaneous injection into the rat's footpad. The introduction of CFA to peripheral tissues leads to a rapid, sustained, inflammatory reaction in the treated tissue within 24 hours. Subcutaneous administration of CFA in the plantar region of the paw induces inflammatory pain behaviors that persist for at least 8 days. CFA treatment also leads to the accumulation of inflammatory cytokines in paw tissue at the site of injury, which, if unresolved, can lead to formation of fibrotic tissue. The extent of inflammatory response to CFA can be assessed by quantification of inflammatory cytokines in paw skin lysate, and inflammatory pain behaviors by mechanical allodynia (von Frey test) and thermal hyperalgesia (Hargreaves test).
(§2) In another study, Compounds 1a, 5a, and 6a were similarly tested against CFA-induced inflammatory stimulation in the right hind foot for their ability to reduce pain behaviors. This study also included quantification of inflammatory cytokine expression in paw skin lysate. Inflammatory pain stimulation with CFA injection and assessment of mechanical and thermal pain behaviors were performed as described above, with the exception that only post-dose pain behavior testing is reported.
(§3) Intraplantar CFA injection occurred at day 0. Treatment with Compounds 1a, 5a, and 6a occurred at days −2, 1, 3, and 7. At day 8, the rats were terminated and cytokine levels were measured in paw skin and plasma. Tissue from paw bone, joint, and muscle were obtained for H&E staining and analysis. Cytokine levels in test compound-treated animals were compared to CFA-stimulated animals. Analytes included interleukin 4 (IL-4), tumor necrosis factor alpha (TNF-α) and interferon gamma (IFN-γ). Statistical analysis consisted of 1-way ANOVA followed by Dunnett's multiple comparisons post-test. Mechanical allodynia and thermal hyperalgesia were tested 1 hour post-dosing on days 1, 3, and 7. PWT refers to […] paw withdrawal threshold where a higher value corresponds to a higher pain threshold. PWL refers to […] paw withdrawal latency where a higher value corresponds to a higher pain threshold.

CFA-stimulated rats [2] = test: CFA inflammatory pain model, mechanical allodynia (von Frey test); format: in vivo; design: key to Mechanical Allodynia, change in sensitivity compared to CFA alone / Mechanical Allodynia, significant reduction in pain behavior vs CFA alone: NS = no statistically significant change in sensitivity compared to CFA alone; + = statistically significant change in sensitivity compared to CFA alone, p < 0.05; conditions: for study days on which sensitivity to mechanical stimulation was reduced: PO, post-dose testing, any tested dose; for PWT (paw withdrawal threshold) vs CFA+vehicle: data not shown
Method: as §1
In one study, Compound 2a was tested for its ability to reduce inflammatory pain behaviors in the CFA inflammation model. On study day 0, […] of CFA was administered subcutaneously in the plantar of the right hind paw. Animals were treated daily with Compound 2a in solution via oral gavage (PO) at doses of 1, 0.1, and 0.025 mg/kg. Treatment began before CFA injection on study day −1 and continued through study day 8.
Mechanical allodynia was measured using the von Frey test. In this test, rats were placed on a wire mesh and a series of filaments designed to deliver probing force ranging from 4 to 26 grams were applied to the mid-plantar surface of the right hind paw. Animals indicated pain response by lifting the probed paw. The minimal force required to elicit the withdrawal response was recorded as the paw withdrawal threshold (PWT). Von Frey testing was performed 1 hour after Compound 2a dosing on study day 1, 3, and 7, and was also tested pre-dosing on day 7. Statistical analysis was performed using a 1-way ANOVA with Tukey post-test. A p-value below 0.05 was considered statistically significant. Control animals stimulated with CFA but treated with only vehicle had high sensitivity to mechanical stimulation compared to normal control animals.
as §2, §3

MRC-5 cells = test: TGFβ-stimulated αSMA expression in MRC-5 cells (HTRF); format: cell-based; design: key to Significant reduction in αSMA via HTRF compared to TGFβ alone: NS = no statistically significant change in aSMA expression; + = p < 0.05; ++ = p < 0.01; +++ = p < 0.005; ++++ = p < 0.001; conditions: for αSMA expression: combined with 0.01 ng/ml HGF; for Significant reduction in αSMA via HTRF compared to TGFβ alone: TGFβ 1 ng/ml, HGF 0.01 ng/ml, 48 h
Method: In this study, pulmonary-derived immortalized fibroblasts, MRC-5 cells, were cultured as a model of the early transition to fibrosis, and αSMA expression was measured using an immunodetection system driven by homogenous time-resolved fluorescence (HTRF) technology. This detection system produces a fluorescent signal in the presence of αSMA in cell lysates. Cells were grown to confluence in 96-well culture plates in complete media, and then transitioned to serum-free media for 2 hours. Next TGFβ (final 1 ng/ml in serum-free media) was added to the cells to stimulate the fibrotic transition. After 2 hours, media containing either HGF or HGF combined with one of the compounds was added to the cells. After incubation for 48 hours, cells were lysed and processed for αSMA HTRF to detect the levels of αSMA expression and compared to TGFβ-stimulated cultures. Statistical analysis consisted of 1-way ANOVA with a Dunnett's multiple comparison's post-test.

For `CCC(C)CN1CC2N(C(=O)c3ccc(C(F)(F)F)cc3)CCC(=O)N2[C@@H](C)C1=O` (stereo partly shown) [Compound 1a], the “IFN-γ expression in paw skin, change compared to CFA alone” value (“IFN-γ expression in paw skin, change” for short) (CFA-stimulated rats [1]; 8 mg/kg PO) was “+ (+ = statistically significant change in expression compared to CFA alone, p < 0.05)”, the “IL-4 expression in paw skin, change compared to CFA alone” value (from here on “IL-4 expression in paw skin, change”) (CFA-stimulated rats [1]; 8 mg/kg PO) was “+ (+ = statistically significant change in expression compared to CFA alone, p < 0.05)” and the “TNF-α expression in paw skin, change compared to CFA alone” value (“TNF-α expression in paw skin, change” for short) (CFA-stimulated rats [1]; 8 mg/kg PO) was “+ (+ = statistically significant change in expression compared to CFA alone, p < 0.05)”. The “IFN-γ expression in paw skin, change” value (CFA-stimulated rats [1]; 16 mg/kg PO) was “NS”, the “IL-4 expression in paw skin, change” value (CFA-stimulated rats [1]; 16 mg/kg PO) was “+ (+ = statistically significant change in expression compared to CFA alone, p < 0.05)” and the “TNF-α expression in paw skin, change” value (CFA-stimulated rats [1]; 16 mg/kg PO) was “+ (+ = statistically significant change in expression compared to CFA alone, p < 0.05)”. For the same compound, the “Mechanical Allodynia, significant reduction in pain behavior vs CFA alone” value (CFA-stimulated rats [2]; 8 mg/kg PO, Day 1, 1 h post-dose) was “+ (+ = statistically significant change in sensitivity compared to CFA alone, p < 0.05)”, the “Mechanical Allodynia, significant reduction in pain behavior vs CFA alone” value (CFA-stimulated rats [2]; 8 mg/kg PO, Day 3, 1 h post-dose) was “+ (+ = statistically significant change in sensitivity compared to CFA alone, p < 0.05)” and the “Mechanical Allodynia, significant reduction in pain behavior vs CFA alone” value (CFA-stimulated rats [2]; 8 mg/kg PO, Day 7, 1 h post-dose) was “NS”. The “Mechanical Allodynia, significant reduction in pain behavior vs CFA alone” value (CFA-stimulated rats [2]; 16 mg/kg PO, Day 1, 1 h post-dose) was “+ (+ = statistically significant change in sensitivity compared to CFA alone, p < 0.05)”, the “Mechanical Allodynia, significant reduction in pain behavior vs CFA alone” value (CFA-stimulated rats [2]; 16 mg/kg PO, Day 3, 1 h post-dose) was “+ (+ = statistically significant change in sensitivity compared to CFA alone, p < 0.05)” and the “Mechanical Allodynia, significant reduction in pain behavior vs CFA alone” value (CFA-stimulated rats [2]; 16 mg/kg PO, Day 7, 1 h post-dose) was “+ (+ = statistically significant change in sensitivity compared to CFA alone, p < 0.05)”. For the same compound, the “study days on which sensitivity to mechanical stimulation was reduced” value (CFA-stimulated rats [2]) was “study days 1, 3, and 7”, the “PWT (paw withdrawal threshold) vs CFA+vehicle” value (from here on “PWT … vs CFA+vehicle”) (CFA-stimulated rats [2]; day 1) was “statistically significant increase” and the “PWT … vs CFA+vehicle” value (CFA-stimulated rats [2]; day 3, 8 and 16 mg/kg) was “statistically significant increase”. The “PWT … vs CFA+vehicle” value (CFA-stimulated rats [2]; day 7, 16 mg/kg) was “statistically significant increase”, the αSMA expression (MRC-5 cells; 1 uM) was “significantly reduced αSMA” and the “Significant reduction in αSMA via HTRF compared to TGFβ alone” value (“Significant reduction in αSMA via HTRF” for short) (MRC-5 cells; test compound 1 nM) was “NS”. The “Significant reduction in αSMA via HTRF” value (MRC-5 cells; test compound 1 μM) was “++++ (++++ = p < 0.001)”.
`CCC(C)CN1CC2N(Cc3ccc(C(F)(F)F)cc3)CCC(=O)N2[C@@H](C)C1=O` (stereo partly shown) [Compound 5a] was tested, and the “IFN-γ expression in paw skin, change” value (CFA-stimulated rats [1]; 10 mg/kg PO) was “+ (+ = statistically significant change in expression compared to CFA alone, p < 0.05)”, the “IL-4 expression in paw skin, change” value (CFA-stimulated rats [1]; 10 mg/kg PO) was “+ (+ = statistically significant change in expression compared to CFA alone, p < 0.05)” and the “TNF-α expression in paw skin, change” value (CFA-stimulated rats [1]; 10 mg/kg PO) was “+ (+ = statistically significant change in expression compared to CFA alone, p < 0.05)”. For the same compound, the “IFN-γ expression in paw skin, change” value (CFA-stimulated rats [1]; 20 mg/kg PO) was “+ (+ = statistically significant change in expression compared to CFA alone, p < 0.05)”, the “IL-4 expression in paw skin, change” value (CFA-stimulated rats [1]; 20 mg/kg PO) was “+ (+ = statistically significant change in expression compared to CFA alone, p < 0.05)” and the “TNF-α expression in paw skin, change” value (CFA-stimulated rats [1]; 20 mg/kg PO) was “+ (+ = statistically significant change in expression compared to CFA alone, p < 0.05)”. The “Mechanical Allodynia, significant reduction in pain behavior vs CFA alone” value (CFA-stimulated rats [2]; 10 mg/kg PO, Day 1, 1 h post-dose) was “+ (+ = statistically significant change in sensitivity compared to CFA alone, p < 0.05)”, the “Mechanical Allodynia, significant reduction in pain behavior vs CFA alone” value (CFA-stimulated rats [2]; 10 mg/kg PO, Day 3, 1 h post-dose) was “NS” and the “Mechanical Allodynia, significant reduction in pain behavior vs CFA alone” value (CFA-stimulated rats [2]; 10 mg/kg PO, Day 7, 1 h post-dose) was “NS”. The “Mechanical Allodynia, significant reduction in pain behavior vs CFA alone” value (CFA-stimulated rats [2]; 20 mg/kg PO, Day 1, 1 h post-dose) was “+ (+ = statistically significant change in sensitivity compared to CFA alone, p < 0.05)”, the “Mechanical Allodynia, significant reduction in pain behavior vs CFA alone” value (CFA-stimulated rats [2]; 20 mg/kg PO, Day 3, 1 h post-dose) was “NS” and the “Mechanical Allodynia, significant reduction in pain behavior vs CFA alone” value (CFA-stimulated rats [2]; 20 mg/kg PO, Day 7, 1 h post-dose) was “NS”. The “study days on which sensitivity to mechanical stimulation was reduced” value (CFA-stimulated rats [2]) was “study day 1”, the “PWT … vs CFA+vehicle” value (CFA-stimulated rats [2]; day 1) was “statistically significant increase” and the αSMA expression (MRC-5 cells; 1 nM) was “significantly reduced αSMA”. For the same compound, the αSMA expression (MRC-5 cells; 1 uM) was “significantly reduced αSMA”, the “Significant reduction in αSMA via HTRF” value (MRC-5 cells; test compound 1 nM) was “+ (+ = p < 0.05)” and the “Significant reduction in αSMA via HTRF” value (MRC-5 cells; test compound 1 μM) was “++++ (++++ = p < 0.001)”.
